Patent publication US20130324522A1, “INSECT ODORANT RECEPTOR ANTAGONISTS” (THE ROCKEFELLER UNIVERSITY, priority 2010, published 2013)
Where two headings read alike, the source gives them in different places.

Tests used:
Or47a/Or83b = target: T1, Or47a/Or83b (Drosophila melanogaster, UniProt P81921+Q9VNB5); experiment: Ca2+-imaging of stable Flip-In T-Rex cell line Or47a/Or83b; assay type: cell-based; settings: for inhibition at 4 µM: read-out: Percent Inhibition OR47a OR83b
T1 construct: Full-length cDNAs for mosquito (Anopheles gambiae) odorant receptor (OR1, OR2, OR7, OR8, OR28), and fly (Drosophila melanogaster) odorant receptor (Or47a, Or83b); expressed in transfected cells
T1 sequence (P81921 1-385): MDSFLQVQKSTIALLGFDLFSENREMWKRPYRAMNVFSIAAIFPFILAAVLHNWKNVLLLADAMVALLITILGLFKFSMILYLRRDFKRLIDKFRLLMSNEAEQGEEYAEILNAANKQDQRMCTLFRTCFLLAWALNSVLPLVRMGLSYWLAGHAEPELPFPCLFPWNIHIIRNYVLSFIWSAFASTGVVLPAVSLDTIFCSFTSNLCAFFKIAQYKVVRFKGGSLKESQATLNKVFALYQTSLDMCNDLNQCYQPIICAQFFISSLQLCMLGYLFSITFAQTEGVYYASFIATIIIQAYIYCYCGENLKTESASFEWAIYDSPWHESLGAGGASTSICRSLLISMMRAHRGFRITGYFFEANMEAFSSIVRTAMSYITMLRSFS
T1 sequence (Q9VNB5 1-486): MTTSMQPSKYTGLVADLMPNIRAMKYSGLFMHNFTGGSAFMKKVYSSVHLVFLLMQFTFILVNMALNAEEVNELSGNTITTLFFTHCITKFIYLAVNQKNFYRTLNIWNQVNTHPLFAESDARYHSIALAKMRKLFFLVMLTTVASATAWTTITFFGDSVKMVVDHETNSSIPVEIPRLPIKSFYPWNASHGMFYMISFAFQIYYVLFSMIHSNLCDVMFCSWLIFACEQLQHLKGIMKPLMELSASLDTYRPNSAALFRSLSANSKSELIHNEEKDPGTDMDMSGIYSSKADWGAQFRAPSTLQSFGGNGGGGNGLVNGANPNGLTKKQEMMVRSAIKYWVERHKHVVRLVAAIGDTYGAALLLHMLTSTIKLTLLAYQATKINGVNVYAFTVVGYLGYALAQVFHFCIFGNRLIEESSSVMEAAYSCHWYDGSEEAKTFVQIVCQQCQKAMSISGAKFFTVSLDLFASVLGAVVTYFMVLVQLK
Description: (§1) Full-length cDNAs for mosquito (Anopheles gambiae) odorant receptor (OR1, OR2, OR7, OR8, OR28), and fly (Drosophila melanogaster) odorant receptor (Or47a, Or83b), mouse TRP channel (TRPM8), and mouse serotonin receptor (5HT3) were obtained and subcloned into mammalian expression vectors. The following mammalian expression vectors were used:
(§2) Stable cell lines Or47a/Or83b and 5HT3 were generated from Flip-In T-Rex cells. Flip-In T-Rex-based cell lines were cultured in DMEM supplemented with these additional antibiotics: 6 μg/mL blasticidin and 100 μg/mL hygromycin.
(§3) Cells were trypsinized and split into 35 mm dishes 1 day before transfection. Confluent cells (60-70%) in 35 mm dishes were co-transfected with 1 μg of Or47a/Or83b plasmid in pcDNA5/FRT/TO/IRES plus the pOG44 plasmid or 1 μg of 5HT3 plasmid in pcDNA5/FRT/TO plus the pOG44 plasmid using lipofectamine 2000. Co-transfection of pOG44 and pcDNA5/FRT/TO/IRES or pcDNA5/FRT/TO allows expression of Flp recombinase and integration of the pcDNA5 plasmid into the genome via the FRT site. After one day of incubation, the transfected cells were transferred into 10 cm dishes with DMEM containing antibiotics: 20 μg/mL of hygromycin and 6 μg/mL of blasticidin. The concentration of Hygromycin was increased to 100 μg/mL when the population of cells became 30-40% confluent. The cells were cultured by changing medium every two days until cell clumps appeared. The clumps were picked and transferred into 96 well plates with DMEM containing 100 μg/mL of Hygromycin and 6 μg/mL of blasticidin. The cells were grown and transferred to 24 well plates, and ligand-evoked calcium increases were tested using the Hamamatsu FDSS6000 real time fluorescence plate reader.
(§4) Stable cell lines were cultured in 10 cm dishes, and confluent cells (70-80%) were trypsinized. 10,000 cells/20 μL were transferred into each well of 384-well plates coated with poly-D-lysine, and cultured for 2 days. For Flip-In T-Rex cells (cell lines expressing Or47a/Or83b and 5HT3), 5 μL of tetracycline (5 μg/mL) were added 1 day before the assay. 20 μL of Ca-4 dye was loaded into each well for 1.5 hr at room temperature in the dark, and the dye-loaded plates were subjected to Ca^2+-imaging using a Hamamatsu FDSS6000 real time fluorescence plate reader. Odorant solutions (9× final concentration) were prepared by dissolving 1M stock solutions into Hank's Buffered Salt Solution (HBSS), and 30 μL of odor solution was transferred to each well in 384-well plates.
(§5) Compounds ([…] in DMSO) were stored in 384-well plates, and last two columns (32 wells total) contained only DMSO. 200 nL of small compounds were transferred into the odorant plates before the assay using the Perkin-Elmer Janus workstation. The odorant plates were spun down to remove air bubbles, and placed on the FDSS6000 plate loader, and 5 μL of odorant solution was applied to the cell plate on the FDSS6000. Ca^2+ increase was monitored with fluorescence at 525 nm by excitation at 485 nm.

[1] = target: T2, serotonin receptor (5HT3) (Mus musculus, UniProt P23979); experiment: Ca2+-imaging of stable Flip-In T-Rex cell line 5HT3; assay type: cell-based; settings: for inhibition at 4 µM: read-out: Percent Inhibition 5HT3
T2 construct: Full-length cDNAs for mosquito (Anopheles gambiae) odorant receptor; expressed in transfected cells
T2 sequence (P23979 24-489): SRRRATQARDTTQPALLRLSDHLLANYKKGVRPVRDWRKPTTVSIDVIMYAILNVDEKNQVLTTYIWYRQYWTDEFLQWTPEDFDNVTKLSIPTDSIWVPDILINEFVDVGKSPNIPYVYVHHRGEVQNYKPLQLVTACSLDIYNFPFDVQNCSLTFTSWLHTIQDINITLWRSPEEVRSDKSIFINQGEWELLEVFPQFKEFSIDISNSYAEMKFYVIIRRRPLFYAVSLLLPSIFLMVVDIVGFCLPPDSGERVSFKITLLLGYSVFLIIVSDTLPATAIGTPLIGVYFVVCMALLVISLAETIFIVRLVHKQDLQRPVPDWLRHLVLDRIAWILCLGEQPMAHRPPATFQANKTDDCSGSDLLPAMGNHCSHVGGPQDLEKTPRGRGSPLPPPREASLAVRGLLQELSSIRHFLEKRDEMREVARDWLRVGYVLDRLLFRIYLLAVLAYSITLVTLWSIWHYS
Description: as §1, §2, §3, §4, §5

[2] = ligand pentyl acetate 30 μM, read-out: IC50 OR47a OR83b
[3] = ligand serotonin 10 μM, read-out: IC50 5HT3

Row | Structure (SMILES) | IC50 (Or47a/Or83b; Table B, read-out: IC50 OR47a) | inhibition at 4 µM (Or47a/Or83b; compound applied at 4 μM) | inhibition at 4 µM ([1]; compound applied at 4 μM) | also measured
1 | CCNc1nc(NCC)nc(SC)n1 [RU-T4] |  |  |  | IC50 (Or47a/Or83b; [2]): > 20000 nM; IC50 [1, 3]: 20000 to 50000 nM
2 | CC(=O)OCC(=O)NCC1Cc2cc(Oc3ccccc3)ccc2O1 (stereo not drawn) [RU-0079120] | < 100 nM | 51 to 74% | 26 to 50% | 
3 | CCNc1nc(NC(C)C)nc(N(C#N)Cc2ccccc2)n1 [RU-0015806] | < 100 nM | 51 to 74% | 51 to 74% | IC50 ([1]; Table B, read-out: IC50 5HT3): > 1000 nM
4 | CCNc1nc(NC(C)C)nc(SC)n1 [RU-T3] |  |  |  | IC50 (Or47a/Or83b; [2]): 2000 to 20000 nM; IC50 [1, 3]: 20000 to 50000 nM
5 | Cc1c(C(=O)NCc2ccco2)cnn1-c1ccccc1 [RU-0047765] | > 1000 nM | 26 to 50% | < 25% | 
6 | CC(C)Nc1nc(Cl)nc(NCc2ccccc2)n1 [RU-T9] |  |  |  | IC50 (Or47a/Or83b): > 20000 nM; IC50 [1]: > 50000 nM
7 | Cc1ccccc1C(=O)N[C@@H]1CCCCC1NC(=O)C1CCN(C(=O)C23CC4CC(CC(C4)C2)C3)CC1 (stereo partly drawn) [RU-0045351] |  | 26 to 50% | < 25% | 
8 | COc1ccccc1CCC(=O)N1CCC(CCC(=O)Nc2ccccc2)CC1 [RU-0032455] | > 1000 nM | 51 to 74% | 26 to 50% | 
9 | Cc1cc(N(C)C2CCCCC2)nc(SCc2cccc(C(=O)N3CCCC3)c2)n1 [RU-0034108] | > 1000 nM | 26 to 50% | < 25% | 
10 | CSc1nc(NC(C)C)nc(NC(C)C)n1 [RU-T2] |  |  |  | IC50 (Or47a/Or83b; [2]): > 20000 nM; IC50 [1, 3]: 2000 to 20000 nM
11 | C=CCNC(=O)C(NC(=O)c1cccc(C)c1)C1CCN(C(=O)c2cccc(Br)c2)CC1 (stereo not drawn) [RU-0039123] | > 1000 nM | 51 to 74% | 26 to 50% | 
12 | CCN(CC)C(=O)Oc1ccc2c(ccn2Cc2ccc(Cl)cc2)c1NC(=O)C1CC1 [RU-0075475] |  |  |  | inhibition at 4 µM (Or47a/Or83b): < 25%; inhibition at 4 µM [1]: < 25%
13 | COCCN(Cc1c(-c2ccccc2)noc1N(C)C1CCCCC1)C(=O)c1ccccc1OC [RU-0037275] | > 1000 nM | 51 to 74% | 26 to 50% | 
14 | N#Cc1ccccc1C(=O)N1CCOC(COCc2c(Cl)cccc2Cl)C1 (stereo not drawn) [RU-0050405] | > 1000 nM | 51 to 74% | < 25% | 
15 | CN(Cc1nccn1Cc1c(F)cccc1Cl)C(=O)C1CCCC1 [RU-I5] |  |  |  | IC50 (Or47a/Or83b; [2]): 20000 to 50000 nM; IC50 [1, 3]: 2000 to 20000 nM
16 | O=C(c1ccco1)N(Cc1nccn1Cc1ccccc1Cl)CC1CC1 [RU-0047281] | > 1000 nM | > 75% | > 75% | IC50 ([1]; Table B, read-out: IC50 5HT3): 100 to 1000 nM
17 | CCN(C)c1onc(-c2ccccc2)c1CN(CCCOC)C(=O)c1ccco1 [RU-0051926] |  | 26 to 50% | 51 to 74% | IC50 ([1]; Table B, read-out: IC50 5HT3): 100 to 1000 nM
18 | O=C(c1cccnc1Cl)N1CCOC(COCc2c(Cl)cccc2Cl)C1 (stereo not drawn) [RU-0050372] |  | 26 to 50% | < 25% | 

Row | Structure (SMILES) | IC50 (Or47a/Or83b; Table B, read-out: IC50 OR47a) | inhibition at 4 µM (Or47a/Or83b; compound applied at 4 μM) | inhibition at 4 µM ([1]; compound applied at 4 μM) | also measured
19 | CCN(CC)c1onc(-c2ccc(F)cc2)c1CN(CCCOC)C(=O)c1ccc2c(c1)OCO2 [RU-0036983] | > 1000 nM | 51 to 74% | 26 to 50% | 
20 | CCc1c(C(=O)NCc2cccnc2)cnn1-c1ccccc1 [RU-0048504] |  | 26 to 50% | < 25% | 
21 | COCCN(Cc1c(-c2ccccc2)noc1N1CCSCC1)CC(O)COCc1ccco1 (stereo not drawn) [RU-0037278] | > 1000 nM | 51 to 74% | 26 to 50% | 
22 | COc1ccc(OCC(=O)N2CCOC(Cc3ccccc3)C2)cc1 (stereo not drawn) [RU-0050384] |  | 26 to 50% | < 25% | 
23 | O=C(c1c(F)c(F)cc(F)c1F)N1CCOC(Cc2ccccc2)C1 (stereo not drawn) [RU-0050393] |  | 26 to 50% | 26 to 50% | 
24 | CCOC(=O)CCC(=O)N(CCc1ccccc1)CC(=O)Nc1cc(C(C)(C)C)nn1-c1ccccc1C [RU-0072462] |  | 26 to 50% | < 25% | 
25 | CCn1c(C)c(C(=O)CN(CC2CCCO2)C(=O)C2C[C@H]2c2ccccc2)c(C)c1C(=O)OC (stereo partly drawn) [RU-0071273] | > 1000 nM | 26 to 50% | 26 to 50% | 
26 | CN(C)c1ccc(C(=O)N2CCOC(COCc3ccccc3F)C2)cc1 (stereo not drawn) [RU-0050325] | > 1000 nM | 26 to 50% | < 25% | 
27 | CC(C)CN(Cc1nccn1Cc1ccc(Cl)cc1Cl)C(=O)c1ccccc1F [RU-0055322] |  | 26 to 50% | < 25% | 
28 | C=CCN(Cc1nccn1Cc1ccc(Cl)c(Cl)c1)C(=O)c1ccccc1F [RU-0047955] |  | 26 to 50% | < 25% | 
29 | COc1ccc(-c2cc(-c3ccccc3)n(C(=O)CN3CCN(Cc4ccccc4)CC3)n2)cc1 [RU-0038795] | > 1000 nM | 51 to 74% | 51 to 74% | IC50 ([1]; Table B, read-out: IC50 5HT3): > 1000 nM
30 | CCc1cc(N2CCCC2)nc(SCc2ccc(C(=O)N3CCOCC3)o2)n1 [RU-0047568] |  | 26 to 50% | 26 to 50% | 
31 | COc1ccccc1C(=O)C1CCCN(C(=O)c2cccc(N3CCOCC3)c2)C1 (stereo not drawn) [RU-0029350] | < 100 nM | 51 to 74% | < 25% | 
32 | COCCN(Cc1nccn1Cc1c(F)cccc1Cl)C(=O)CCc1ccccc1 [RU-0058550] |  | 26 to 50% | < 25% | 
33 | CCN(CC)C(=O)Oc1ccc2c(ccn2Cc2ccccc2Cl)c1NC(=O)CCCCC(=O)OC [RU-0075446] |  |  |  | inhibition at 4 µM (Or47a/Or83b): < 25%; inhibition at 4 µM [1]: 26 to 50%
34 | CC(C)CN(Cc1nccn1Cc1c(F)cccc1Cl)C(=O)c1ccc(F)cc1 [RU-0048054] |  | 26 to 50% | < 25% | 
35 | COc1cccc(NC(=O)CCC2CCN(C(=O)CSc3ccccc3)CC2)c1 [RU-0032474] | > 1000 nM | 51 to 74% | < 25% | 
